According to patent US20230382858A1 (Beckley Psytech Limited, priority 2020, published 2023):

Legend:
[1] = test system: male Sprague-Dawley rats; experiment: Functional Observational Battery (FOB), effects on CNS function (ITR study 15951); format: in vivo; details: rat
Procedure: The test and control/vehicle items were administered by single dose intranasal administration to both nostrils, as shown in Table 1.
Parameters monitored included mortality and clinical signs. General behavioral changes were assessed using FOB at 6 timepoints: before dosing, and at 15 minutes, 1, 2, 4, and 24 hours postdosing. On each occasion, the FOB was performed at 4 stages: when the animals were in their home cage, while handling the animals, when the animals were freely moving in an open-field, and when they received diverse stimuli for reactivity evaluation. The body temperature and neuromuscular strength were also measured on each of the occasions detailed above.

[2] = test system: dogs; experiment: Maximum tolerated dose followed by 7-day repeat-dose toxicology in dogs (Study 62958); format: in vivo; details: dog
Procedure: In support of these objectives, the study consisted of 2 individual phases.
The test item was administered once by intranasal instillation to one male and female dog for up to 5 dose levels until the highest tolerable dose (MTD) was determined as described in Table 5.
During Phase 2, assessments of mortality, clinical signs, body weights and food consumption were performed. […] Following the last dosing, all animals were euthanized and subjected to a necropsy examination on Day 8. The necropsy consisted of an external examination; including reference to all clinically-recorded lesions, as well as a detailed internal examination. Study plan specific tissues/organs were collected and preserved following necropsy but were not further examined microscopically.

[3] = Toxicokinetics in Study 62958 (plasma 5MeODMT, LC/MS/MS); format: in vivo; details: dog, daily intranasal instillation, 7-day treatment period
[4] = test system: Sprague Dawley rats; experiment: 14-day repeat-dose intranasal toxicity study with 14-day recovery in rats (Study 700041); format: in vivo, rat; details: for clinical signs: male and female; for microscopic changes in nasal cavities: male and/or female
Procedure: (§1) The animals were monitored for mortality, clinical signs, respiratory measurements, body weights, food consumption, and body temperature. Ophthalmoscopic examinations and respiratory function tests were performed on all animals at scheduled timepoints. Clinical pathology assessments (hematology, coagulation, clinical chemistry, and urinalysis) were evaluated at termination. […] Following dosing, the Main animals were euthanized and subjected to a complete necropsy examination on Day 15. […] TK animals were euthanized after the last blood collection and discarded without further examination. At terminal euthanasia, selected tissues/organs were weighed, and microscopic evaluations of a standard set of tissues including the nasal turbinates (4 sections) and brain (7 sections) were performed for all Main and Recovery study animals.
(§2) Following dosing, animals in the Main group were euthanized and subjected to a necropsy examination on Day 15.
Toxicity was based on the following parameters monitored: mortality/morbidity, clinical observations, body weights/gains, food consumption, ophthalmoscopy, clinical pathology (hematology, coagulation, chemistry, and urinalysis), necropsy observations, selected organ weights, and microscopic examination of a complete set of standard tissues including 4 cross levels of the nasal cavity and 7 sections of the brain.

[5] = Toxicokinetics in Study 700041; format: in vivo; details: rat, intranasal 20 mg/kg/day, Day 14, Male
Procedure: as §1, §2

[6] = test system: Beagle dogs; experiment: 14-day repeat-dose intranasal toxicity study with 14-day recovery in dogs (Study 62959); format: in vivo; details: dog; for animals with increased triglyceride level: vs control
Procedure: (§3) Assessments of mortality, clinical signs, olfactory reflex, body weights, food consumption, ophthalmology, and electrocardiograms were performed. In addition, clinical pathology assessments (hematology, coagulation, clinical chemistry and urinalysis) were evaluated once pretreatment and at termination. Blood samples were collected from the jugular vein of all animals on Days 1 and 14, at up to 8 time points relative to treatment, for analysis of test item concentration in plasma and the subsequent calculation of toxicokinetic parameters. Following dosing, the Main animals were euthanized and subjected to a complete necropsy examination on Day 15. […] All Main and Recovery study animals underwent complete necropsy examinations, selected tissues/organs were retained, and microscopic evaluations of a standard set of tissues were performed.

[7] = Toxicokinetics in Study 62959; format: in vivo; details: dog
Procedure: as §3
For toxicokinetics, a series of 8 blood samples were collected from the jugular vein from all treated animals on each of Days 1 and 14 of the treatment period at 2, 5, 10, 15, 30, and 60 minutes as well as 3 and 8 hours after treatment.

[8] = test system: Dog; experiment: Summary of clinical observations in applicant-sponsored dog toxicity studies; format: in vivo; details: Dog 1.0 mg/kg (33 mg HED), preliminary data, ongoing study
Text: Based on preliminary data from another ongoing study in dogs, it has been observed that the site of blood sampling in dogs may impact the measured plasma exposure. Samples from the jugular vein may result in higher apparent exposure levels than samples from the cephalic vein, which might be due to the local transmucosal route of administration (also reported in the scientific literature (Illum, 2003; Sohlberg, 2013)). Therefore, dose escalation criteria for the Phase 1 Single Ascending Dose study are based on assessment of clinical criteria, safety factors and exposure. A maximum dose of 14 mg has been designated.

[9] = single intranasal 1, 5, and 10 mg/kg, all dose levels
[10] = dose escalation phase, single intranasal 2-5 mg/kg
[11] = phase 2, MTD once daily 5 days then twice daily Days 6 and 7
[12] = rat, dose levels ≤75 mg/kg/day for 14 days
[13] = intranasal 0.8 mg/kg/day, Day 1, Female
[14] = intranasal 0.8 mg/kg/day, Day 1, Male
[15] = intranasal 0.8 mg/kg/day, Day 14, Female

COc1ccc2[nH]cc(CCN(C)C)c2c1 [BPL-5MEO, 5-methoxy-N,N-dimethyltryptamine]
clinical sign in one animal ([1]; single intranasal 10 mg/kg): twitching | FOB autonomic domain [1, 9]: salivation, piloerection, increased respiration, dilated pupils and changes in body temperature | FOB neurological (sensorimotor)/neuromuscular domain [1, 9]: transient changes in gait (difficulty in movement) | FOB behavioral domain ([1]; single intranasal 1.5, 3, 10 mg/kg, 15 minutes postdose): transient decreased activity, lying on the cage floor, and decreased rearing | clinical signs in some animals ([1]; single intranasal 3 and 10 mg/kg): Tremors, salivation, and gasping | clinical signs immediately following dosing ([1]; single intranasal, all dose groups): decreased activity, lying on the cage floor, shallow/increased respiration and dilated pupils | food intake ([2]; dose escalation phase, after Dose 1 and Dose 2): Slight decreases in food intake | clinical signs [2, 10]: gnawing cage wire, dilated pupils, changes in respiration, incoordination, decreased activity, vocalization, salivation, erect penis (for males) and shaking | mortality and bodyweights [2, 10]: no BPL-5MEO-related effects on mortality or bodyweights | duration of convulsion shortly after dosing ([2]; male animal, last escalating dose 3.5 mg/kg/day): 8 min | clinical signs [2, 11]: muscle stiffness, gnawing cage wire, dilated pupils, changes in respiration, decreased activity, incoordination, vocalization, salivation, erect penis (for the male) and shaking | mortality and bodyweights [2, 11]: no test item-related effects on mortality or bodyweights | accumulation [3]: did not accumulate | adverse effect on reproductive tissues ([4]; 14-day pivotal GLP intranasal toxicity studies in rats and dogs): no evidence of an adverse effect on reproductive tissues | Thymus Mean Absolute Weight ([4]; male rats, Group 2 (5 mg/kg/day), compared to the control value): −4 percentage | respiratory rate ([4]; rat, 20 minutes postdose, vs pretreatment or control): decreases in respiratory rates | body temperature ([4]; rat, Day 14, 15 and 30 minutes postdose, all treated male animals): slight body temperature increases | clinical signs ([4]; rat, Group 2 (Low Dose) 5 mg/kg/day): incoordination, shaking, salivation, decreased activity, lying on cage floor and sensitive to touch | clinical signs ([4]; rat, Group 3 (Mid Dose) 20 mg/kg/day): incoordination, shaking (or tremor), increased or shallow respiration, mydriasis, salivation, decreased activity, partially closed eyes, lying on cage floor and sensitive to touch | clinical signs ([4]; rat, Group 4 (High Dose) 75 mg/kg/day): incoordination, shaking (or tremor), increased or shallow respiration, mydriasis, salivation, decreased activity, partially closed eyes, lying on cage floor and sensitive to touch | macroscopic findings ([4]; rat, Main and Recovery groups): no macroscopic findings | microscopic findings in respiratory, transitional and/or olfactory epithelium of nasal cavities 1-4 ([4]; rat, Main group): minimal to mild changes | microscopic changes in nasal cavities ([4]; rat, Main group, 20 mg/kg/day (Group 3)): Minimal degeneration of the respiratory epithelium of the nasal cavities 1 and 2 | microscopic changes in nasal cavities ([4]; rat, Main group, 5 and/or 20 mg/kg/day (Group 2 and 3)): Minimal degeneration of the olfactory epithelium of the nasal cavities 2 and 3 | reversibility of nasal microscopic changes ([4]; rat, Recovery group, 14-day recovery period): incomplete but progressive ongoing reversal of epithelial degeneration | body weight gain ([4]; rat, both sexes, Days 1 to 14): Slight, generally dose-dependent body weight gain suppression | activated partial thromboplastin times (APTT) ([4]; rat, both sexes, mid (20 mg/kg/day) and high (75 mg/kg/day) dose groups, vs control): increased | clinical chemistry and urinalysis [4, 12]: no changes in clinical chemistry and urinalysis parameters | food consumption [4, 12]: no changes in food consumption | ocular effect [4, 12]: no adverse ocular effect | mortality ([4]; rat, intranasal 5, 20, 75 mg/kg/day, 14 days): No mortality | tolerability ([4]; rat, intranasal, dose levels ≤75 mg/kg/day for 14 consecutive days): tolerated | platelet, neutrophil, monocyte and basophil counts ([4]; rat, mid and high dose groups, both sexes, vs control): slightly increased | t1/2 [5]: 8.58 min | body temperature ([6]; Day 14, high dose group, both sexes, 15 and 30 minutes postdose): Transient body temperature increases | Triglyceride, Mean ± SD Day 14 ([6]; Group 2, 0.4 mg/kg/day, Females): 0.46 ± 0.61 mmol/L | Triglyceride, Mean ± SD Day 14 ([6]; Group 2, 0.4 mg/kg/day, Males): 0.40 ± 0.11 mmol/L | Triglyceride, Mean ± SD Day 14 ([6]; Group 3, 0.8 mg/kg/day, Females): 0.47 ± 0.22 mmol/L | Triglyceride, Mean ± SD Day 14 ([6]; Group 3, 0.8 mg/kg/day, Males): 0.44 ± 0.07 mmol/L | animals with increased triglyceride level ([6]; Group 3 female): 1/3 | animals with increased triglyceride level ([6]; Group 4 females): 4/5 | animals with increased triglyceride level ([6]; Group 4 male): 1/5 | additional clinical observations ([6]; Mid and High dose groups): eye discharge and shaking | time to resolution of clinical signs ([6]; all treated groups): ≤ 90 min | transient clinical observation ([6]; all treated groups): incoordination, vocalization, mydriasis, decreased or increased activity, increased respiration, gnawing cage wire, excessive licking of nose or lips and circling | additional clinical observation ([6]; high dose male animals): Erect penis | AUC(0-inf) ([7]; Beagle, plasma, inhaled or intranasal, 1.5 mg/kg/day, combined for both sexes, read-out: AUCINF_obs corresponding to NOAEL): 220 ng·h/mL | Cmax ([7]; intranasal 0.4 mg/kg/day, Day 1, Male): 343 ng/mL | t1/2 ([7]; intranasal 0.4 mg/kg/day, Day 14, Female): 42.4 min | Tmax ([7]; intranasal 0.4 mg/kg/day, Day 14, Male): 6.66 min | AUCINF—obs [7, 13]: 265 ng·h/mL | t1/2 [7, 13]: 43.8 min | AUCINF—obs [7, 14]: 160 ng·h/mL | Tmax [7, 14]: 6.66 min | AUC0-Tlast [7, 15]: 248 ng·h/mL | Cmax [7, 15]: 244 ng/mL | Tmax ([7]; intranasal 0.8 mg/kg/day, Day 14, Male): 6.66 min | Tmax ([7]; intranasal 2.5 & […], Day 1, Female): 6.66 min | t1/2 ([7]; intranasal 2.5 & […], Day 14, Male): 49 min | Clinical observation [8]: Slight tremor
